# “And” between values parts separate entries of the source, which are not always exact repeats. Identical values can stand only once.
# Assays:
# Type in all cases: in vivo
# COG-N-519x = assay: Pre-clinical efficacy study, COG-N-519x PDX; details: single mouse
# Protocol: (§1) Patient demographics and genetic characteristics are listed in (Supplementary Tables 1, 2)[17]. The maximum tolerated dose (MTD) was determined to be 36 MBq/kg administered by intra-peritoneal injection twice weekly for a total of 4 dose fractions and this fractionated regimen was used in all studies (Supplementary Fig. 1)[18],[19]. […] Nine of 11 PDX models were MYCN amplified (Fig. 1b), which is a hallmark of high-risk neuroblastoma. Tumor response was measured as the maximum percent decrease in tumor volume after treatment and event-free survival (EFS) was measured by the area over the curve method with tumor events pre-defined by tumor growth exceeding 2 cm[3],[18].
# (§2) The use of 2 mice per arm was based on the previously reported statistical analysis. PDX tumors were implanted into the right flank of 5 to 6-weeks old female mice weighing about 20–25 grams. […] Two additional dose levels of 12, and 24 MBq/kg/fraction were assessed in a subset of models and were administered as stated above. In two models treated at the 24 MBq/kg/fraction dose level we re-challenged tumor response at the time of tumor progression with an additional 4 dose fractions at 24 MBq/kg/fraction given twice weekly. Doses were prepared in 500 µL total volume. An equal volume of saline was used for the vehicle group. Tumors were measured using a digital caliper at the initiation of the study and two times per week during the treatment period. Tumor volumes were calculated as volume = ([…]∗0.5236)/1000. Weights were obtained twice weekly and mice were monitored daily for signs of toxicity. […] Tumor response was assessed by best response defined as greatest reduction in tumor volume following the last dose and is presented as percent change in tumor volume. Event-free survival was determined by area over the curve method that calculates the time to tumor event, which was defined as tumors reaching or exceeding a size ≥ 2 cm^3.
# Animal studies were performed in female mice due to the lack of sex-related differences for [^211At]PTT tolerability from initial dose response studies performed in female and male mice. Female mice were chosen due to their underlying behavior towards other study subjects that reduced nonstudy-related causes for decreased wellness. Pre-clinical efficacy studies were performed through “single mouse testing” to more closely recapitulate a clinical trial. […] Number size for treatment groups was determined by model tumor growth reproducibility, which was previously shown to have less than 5% normal variation with at least two animals. Statistical tests for tumor response and event-free survival (EFS) were performed as a grouped analysis that included all tumor models treated at each respective dose level (n = 2 per model per dose level). Statistical differences between treatment groups for tumor response was performed by paired-model T-test that compared reduction in tumor volume for the 36 MBq/kg dose level vs. 24 MBq/kg or 12 MBq/kg. Event free survival was measured by area over the curve method to quantify time to event, which was set as tumor growth exceeding 2 cm[3],[19]. Differences in EFS were tested across all treated models for each respective dose level, and against untreated controls, by paired-model ANOVA analysis. Associations of drug target expression and response were performed by linear regression analysis of EFS and PARP1 mRNA expression. Genetic signatures were visually presented as a function of EFS and no statistical tests were applied. Blood and marrow toxicity studies were performed with n = 5 sample sizes and powered to detect >20% differences between untreated controls and treated animals. Results were tested for significance by one-way ANOVA comparison from untreated controls. Marrow colony formation assays were performed in replicates of 2 for each mouse subject, dependent on marrow isolation, and all replicates are included in final analyses. […]
# [1] = Mouse weight over time / tolerability in PDX efficacy study (Fig. 1f)
# Protocol: as §2
# NB-SDx = assay: Pre-clinical efficacy study, NB-SDx PDX; details: single mouse
# Protocol: as §1, §2
# Animal studies were performed in female mice due to the lack of sex-related differences for [^211At]PTT tolerability from initial dose response studies performed in female and male mice. Female mice were chosen due to their underlying behavior towards other study subjects that reduced nonstudy-related causes for decreased wellness. Pre-clinical efficacy studies were performed through “single mouse testing” to more closely recapitulate a clinical trial. […] Number size for treatment groups was determined by model tumor growth reproducibility, which was previously shown to have less than 5% normal variation with at least two animals. […] Event free survival was measured by area over the curve method to quantify time to event, which was set as tumor growth exceeding 2 cm[3],[19]. […]
# [2] = 12 MBq/kg/fraction x 4 fractions
# [3] = 24 MBq/kg/fraction x 4 fractions
# [4] = 36 MBq/kg/fraction x 4 fractions
compound,measurement,setting,value
"O=C1NCCn2c(-c3ccc([211At])cc3)nc3cccc1c32 [[^211At]PTT, Astatine-211-parthanatine]",EFS by AOC method,COG-N-519x; [2],22.7688 days and 33.292 days
same,Tumor response (% growth from study initiation at ~ 200 mm3),COG-N-519x; [2],-46.1538% and -36.8421%
same,EFS by AOC method,COG-N-519x; [3],28.2857 days and 42.6471 days
same,Tumor response (% growth from study initiation at ~ 200 mm3),COG-N-519x; [3],-83.871% and -100%
same,EFS by AOC method,COG-N-519x; [4],82.4 Days and 100. 5 Days and 82.4108 Days and 100.511 Days
same,Tumor response (% growth from study initiation at ~ 200 mm3),COG-N-519x; [4],-100%
same,Percent Body Weight from study initiation,"[1]; COG415-325, 12 MBq/kg/fraction x 4, 0.4 Weeks",100.48% and 95.77%
same,Percent Body Weight from study initiation,"[1]; COG415-325, 12 MBq/kg/fraction x 4, 1 Weeks",100.97% and 94.84%
same,Percent Body Weight from study initiation,"[1]; COG415-325, 12 MBq/kg/fraction x 4, 1.4 Weeks",100% and 92.96%
same,Percent Body Weight from study initiation,"[1]; COG415-325, 12 MBq/kg/fraction x 4, 2 Weeks",97.58% and 92.96%
same,Percent Body Weight from study initiation,"[1]; COG415-325, 12 MBq/kg/fraction x 4, 2.4 Weeks",103.86% and 98.12%
same,Percent Body Weight from study initiation,"[1]; COG415-325, 12 MBq/kg/fraction x 4, 3 Weeks",102.42% and 99.53%
same,Percent Body Weight from study initiation,"[1]; COG415-325, 12 MBq/kg/fraction x 4, 3.4 Weeks",108.7% and 102.35%
same,Percent Body Weight from study initiation,"[1]; COG415-325, 12 MBq/kg/fraction x 4, 4 Weeks",111.11% and 110.33%
same,Percent Body Weight from study initiation,"[1]; COG415-650, 24 MBq/kg/fraction x 4, 0.4 Weeks",102.79% and 99.52%
same,Percent Body Weight from study initiation,"[1]; COG415-650, 24 MBq/kg/fraction x 4, 1 Weeks",96.74% and 92.82%
same,Percent Body Weight from study initiation,"[1]; COG415-650, 24 MBq/kg/fraction x 4, 1.4 Weeks",92.56% and 90.43%
same,Percent Body Weight from study initiation,"[1]; COG415-650, 24 MBq/kg/fraction x 4, 2 Weeks",90.23% and 87.56%
same,Percent Body Weight from study initiation,"[1]; COG415-650, 24 MBq/kg/fraction x 4, 2.4 Weeks",93.49% and 92.34%
same,Percent Body Weight from study initiation,"[1]; COG415-650, 24 MBq/kg/fraction x 4, 3 Weeks",100.93% and 99.04%
same,Percent Body Weight from study initiation,"[1]; COG415-650, 24 MBq/kg/fraction x 4, 3.4 Weeks",100% and 96.65%
same,Percent Body Weight from study initiation,"[1]; COG415-650, 24 MBq/kg/fraction x 4, 4 Weeks",102.33% and 99.04%
same,Percent Body Weight from study initiation,"[1]; COG415-650, 24 MBq/kg/fraction x 4, 4.4 Weeks",106.05% and 102.39%
same,Percent Body Weight from study initiation,"[1]; COG415-650, 24 MBq/kg/fraction x 4, 5 Weeks",107.44% and 96.65%
same,Percent Body Weight from study initiation,"[1]; COG415-650, 24 MBq/kg/fraction x 4, 5.4 Weeks",111.63% and 101.91%
same,Percent Body Weight from study initiation,"[1]; COG415-650, 24 MBq/kg/fraction x 4, 6 Weeks",104.31%
same,Percent Body Weight from study initiation,"[1]; COG415-975, 36 MBq/kg/fraction x 4, 0 Weeks",100%
same,Percent Body Weight from study initiation,"[1]; COG415-975, 36 MBq/kg/fraction x 4, 0.4 Weeks",94.07% and 98.23%
same,Percent Body Weight from study initiation,"[1]; COG415-975, 36 MBq/kg/fraction x 4, 1 Weeks",84.75% and 90.71%
same,Percent Body Weight from study initiation,"[1]; COG415-975, 36 MBq/kg/fraction x 4, 1.4 Weeks",80.51% and 90.27%
same,Percent Body Weight from study initiation,"[1]; COG415-975, 36 MBq/kg/fraction x 4, 2 Weeks",72.88% and 79.65%
same,Percent Body Weight from study initiation,"[1]; COG415-975, 36 MBq/kg/fraction x 4, 2.4 Weeks",77.97% and 83.63%
same,Percent Body Weight from study initiation,"[1]; COG415-975, 36 MBq/kg/fraction x 4, 3 Weeks",80.08% and 81.86%
same,Percent Body Weight from study initiation,"[1]; COG415-975, 36 MBq/kg/fraction x 4, 3.4 Weeks",75.42% and 81.42%
same,Percent Body Weight from study initiation,"[1]; COG415-975, 36 MBq/kg/fraction x 4, 4 Weeks",80.93% and 80.09%
same,Percent Body Weight from study initiation,"[1]; COG415-975, 36 MBq/kg/fraction x 4, 4.4 Weeks",82.2% and 82.3%
same,Percent Body Weight from study initiation,"[1]; COG415-975, 36 MBq/kg/fraction x 4, 5 Weeks",88.56% and 88.05%
same,Percent Body Weight from study initiation,"[1]; COG415-975, 36 MBq/kg/fraction x 4, 5.4 Weeks",88.98% and 91.59%
same,Percent Body Weight from study initiation,"[1]; COG415-975, 36 MBq/kg/fraction x 4, 6.1 Weeks",96.19% and 92.48%
same,Percent Body Weight from study initiation,"[1]; COG415-975, 36 MBq/kg/fraction x 4, 6.4 Weeks",94.07% and 90.71%
same,Percent Body Weight from study initiation,"[1]; COG415-975, 36 MBq/kg/fraction x 4, 7 Weeks",99.58% and 93.36%
same,Percent Body Weight from study initiation,"[1]; COG415-975, 36 MBq/kg/fraction x 4, 7.4 Weeks",101.27% and 93.36%
same,Percent Body Weight from study initiation,"[1]; COG415-975, 36 MBq/kg/fraction x 4, 8 Weeks",95.48%
same,Percent Body Weight from study initiation,"[1]; COG415-975, 36 MBq/kg/fraction x 4, 8.9 Weeks",100.44%
same,Percent Body Weight from study initiation,"[1]; COG415-975, 36 MBq/kg/fraction x 4, 9.4 Weeks",100.88%
same,Percent Body Weight from study initiation,"[1]; COG415-975, 36 MBq/kg/fraction x 4, 10 Weeks",101.77%
same,Percent Body Weight from study initiation,"[1]; COG415-975, 36 MBq/kg/fraction x 4, 10.4 Weeks",103.98%
same,Percent Body Weight from study initiation,"[1]; COG415-975, 36 MBq/kg/fraction x 4, 11 Weeks",107.08%
same,Percent Body Weight from study initiation,"[1]; COG415-975, 36 MBq/kg/fraction x 4, 12 Weeks",105.31%
same,Percent Body Weight from study initiation,"[1]; COG519-325, 12 MBq/kg/fraction x 4, 0 Weeks",100%
same,Percent Body Weight from study initiation,"[1]; COG519-325, 12 MBq/kg/fraction x 4, 0.4 Weeks",100% and 97.98%
same,Percent Body Weight from study initiation,"[1]; COG519-325, 12 MBq/kg/fraction x 4, 1 Weeks",93.83% and 96.97%
same,Percent Body Weight from study initiation,"[1]; COG519-650, 24 MBq/kg/fraction x 4, 0 Weeks",100%
same,Percent Body Weight from study initiation,"[1]; COG519-650, 24 MBq/kg/fraction x 4, 0.4 Weeks",97.69% and 96.86%
same,Percent Body Weight from study initiation,"[1]; COG519-650, 24 MBq/kg/fraction x 4, 1 Weeks",95.37% and 97.38%
same,mice censored from EFS analysis due to weight loss >20%,"[1]; MTD, two out of 22 mice, >50 days from treatment",9%
same,Percent Body Weight from study initiation,"[1]; NBSD-650, 24 MBq/kg/fraction x 4, 2.6 Weeks",90.4306% and 91.4027%
same,Percent Body Weight from study initiation,"[1]; NBSD-650, 24 MBq/kg/fraction x 4, 3 Weeks",94.7368% and 92.3077%
same,Percent Body Weight from study initiation,"[1]; NBSD-650, 24 MBq/kg/fraction x 4, 3.6 Weeks",95.2153% and 92.7602%
same,Percent Body Weight from study initiation,"[1]; NBSD-650, 24 MBq/kg/fraction x 4, 4 Weeks",98.0861%
same,Percent Body Weight from study initiation,"[1]; NBSD-975, 36 MBq/kg/fraction x 4, 2.6 Weeks",84.141% and 86.3636%
same,Percent Body Weight from study initiation,"[1]; NBSD-975, 36 MBq/kg/fraction x 4, 3 Weeks",81.9383% and 87.8788%
same,Percent Body Weight from study initiation,"[1]; NBSD-975, 36 MBq/kg/fraction x 4, 3.6 Weeks",81.4978% and 88.3838%
same,dose-limiting toxicity observed (number),[1]; NE-EBC1x tumor-bearing mouse re-challenged with 24 MBq/kg fractionated regimen,One
same,treated mice that maintained a healthy weight throughout the study (≥100 ± 20% body weight),[1]; all dose levels,43 of 46
same,EFS by AOC method,NB-SDx; [3],44.1 days and 46.5 days and 44.0589 days and 46.4742 days
same,Tumor response (% growth from study initiation at ~ 200 mm3),NB-SDx; [3],-80.9524% and -80%
same,EFS by AOC method,NB-SDx; [4],59.408 days and 51.1551 days
same,Tumor response (% growth from study initiation at ~ 200 mm3),NB-SDx; [4],-96.9697% and -85.7143%

# Reference: article PMC9671962 (Communications Biology, 2022)
